# Numbers after ± are expanded uncertainties.
# Assay: xn = mol fraction of the nth substance listed
# Details: Vibrating tube method
smiles,measurement,setting,value
S [hydrogen sulfide] + CCC,mass density,"333.22 K, 2048 kPa, Gas, x1 = 0.2227",40 ± 0.1 kg/m3
same,mass density,"333.22 K, 2176 kPa, Gas, x1 = 0.2227",43.6 ± 0.1 kg/m3
same,mass density,"333.22 K, 2300 kPa, Gas, x1 = 0.2227",47.2 ± 0.1 kg/m3
same,mass density,"333.22 K, 2398 kPa, Gas, x1 = 0.2227",50.2 ± 0.1 kg/m3
same,mass density,"333.22 K, 2551 kPa, Gas, x1 = 0.2227",55.6 ± 0.1 kg/m3
same,mass density,"333.22 K, 2630 kPa, Gas, x1 = 0.2227",59.1 ± 0.1 kg/m3
same,mass density,"333.22 K, 2722 kPa, Gas, x1 = 0.2227",62.4 ± 0.1 kg/m3
same,mass density,"333.22 K, 2778 kPa, Gas, x1 = 0.2227",65.4 ± 0.1 kg/m3
same,mass density,"333.22 K, 3571 kPa, Liquid, x1 = 0.2227",438.6 ± 0.3 kg/m3
same,mass density,"333.22 K, 3861 kPa, Liquid, x1 = 0.2227",441.9 ± 0.4 kg/m3
same,mass density,"333.22 K, 4197 kPa, Liquid, x1 = 0.2227",445.2 ± 0.4 kg/m3
same,mass density,"333.22 K, 4915 kPa, Liquid, x1 = 0.2227",450.2 ± 0.4 kg/m3
same,mass density,"333.22 K, 5323 kPa, Liquid, x1 = 0.2227",453.4 ± 0.4 kg/m3
same,mass density,"333.22 K, 5731 kPa, Liquid, x1 = 0.2227",456.4 ± 0.4 kg/m3
same,mass density,"333.22 K, 6177 kPa, Liquid, x1 = 0.2227",459.5 ± 0.4 kg/m3
same,mass density,"333.22 K, 6686 kPa, Liquid, x1 = 0.2227",462.8 ± 0.4 kg/m3
same,mass density,"333.22 K, 7239 kPa, Liquid, x1 = 0.2227",466.1 ± 0.4 kg/m3
same,mass density,"333.22 K, 7781 kPa, Liquid, x1 = 0.2227",469.2 ± 0.5 kg/m3
same,mass density,"333.22 K, 8351 kPa, Liquid, x1 = 0.2227",472.3 ± 0.5 kg/m3
same,mass density,"333.22 K, 8992 kPa, Liquid, x1 = 0.2227",475.5 ± 0.5 kg/m3
same,mass density,"333.22 K, 9907 kPa, Liquid, x1 = 0.2227",479.8 ± 0.5 kg/m3
same,mass density,"333.22 K, 10643 kPa, Liquid, x1 = 0.2227",482.8 ± 0.5 kg/m3
same,mass density,"333.22 K, 11360 kPa, Liquid, x1 = 0.2227",485.8 ± 0.6 kg/m3
same,mass density,"333.22 K, 12135 kPa, Liquid, x1 = 0.2227",488.8 ± 0.6 kg/m3
same,mass density,"333.22 K, 12959 kPa, Liquid, x1 = 0.2227",491.9 ± 0.6 kg/m3
same,mass density,"333.22 K, 13811 kPa, Liquid, x1 = 0.2227",495 ± 0.6 kg/m3
same,mass density,"333.22 K, 14817 kPa, Liquid, x1 = 0.2227",498.4 ± 0.7 kg/m3
same,mass density,"333.22 K, 15868 kPa, Liquid, x1 = 0.2227",501.8 ± 0.7 kg/m3
same,mass density,"333.22 K, 16856 kPa, Liquid, x1 = 0.2227",504.8 ± 0.7 kg/m3
same,mass density,"333.22 K, 17893 kPa, Liquid, x1 = 0.2227",507.8 ± 0.7 kg/m3
same,mass density,"333.22 K, 18975 kPa, Liquid, x1 = 0.2227",510.8 ± 0.8 kg/m3
same,mass density,"333.22 K, 20100 kPa, Liquid, x1 = 0.2227",513.8 ± 0.8 kg/m3
same,mass density,"333.22 K, 21435 kPa, Liquid, x1 = 0.2227",517.2 ± 0.8 kg/m3
same,mass density,"333.22 K, 22830 kPa, Liquid, x1 = 0.2227",520.5 ± 0.8 kg/m3
same,mass density,"333.22 K, 24120 kPa, Liquid, x1 = 0.2227",523.5 ± 0.9 kg/m3
same,mass density,"333.22 K, 25466 kPa, Liquid, x1 = 0.2227",526.5 ± 0.9 kg/m3
same,mass density,"333.22 K, 26959 kPa, Liquid, x1 = 0.2227",529.7 ± 0.9 kg/m3
same,mass density,"333.22 K, 28465 kPa, Liquid, x1 = 0.2227",532.7 ± 0.9 kg/m3
same,mass density,"333.22 K, 30160 kPa, Liquid, x1 = 0.2227",536 ± 1 kg/m3
same,mass density,"333.22 K, 31961 kPa, Liquid, x1 = 0.2227",539.4 ± 1 kg/m3
same,mass density,"333.22 K, 33791 kPa, Liquid, x1 = 0.2227",542.6 ± 1 kg/m3
same,mass density,"333.22 K, 35752 kPa, Liquid, x1 = 0.2227",546 ± 1.1 kg/m3
same,mass density,"333.22 K, 37781 kPa, Liquid, x1 = 0.2227",549.3 ± 1.1 kg/m3
same,mass density,"333.22 K, 39778 kPa, Liquid, x1 = 0.2227",552.5 ± 1.2 kg/m3
same,mass density,"363.24 K, 9 kPa, Fluid (supercritical or subcritical phases), x1 = 0.2691",0.1 kg/m3
same,mass density,"363.24 K, 313 kPa, Fluid (supercritical or subcritical phases), x1 = 0.2691",4.4 ± 0.1 kg/m3
same,mass density,"363.24 K, 596 kPa, Fluid (supercritical or subcritical phases), x1 = 0.2691",8.6 ± 0.1 kg/m3
same,mass density,"363.24 K, 842 kPa, Fluid (supercritical or subcritical phases), x1 = 0.2691",12.3 ± 0.1 kg/m3
same,mass density,"363.24 K, 1110 kPa, Fluid (supercritical or subcritical phases), x1 = 0.2691",16.6 ± 0.1 kg/m3
same,mass density,"363.24 K, 1358 kPa, Fluid (supercritical or subcritical phases), x1 = 0.2691",20.8 ± 0.1 kg/m3
same,mass density,"363.24 K, 1602 kPa, Fluid (supercritical or subcritical phases), x1 = 0.2691",25 ± 0.1 kg/m3
same,mass density,"363.24 K, 1810 kPa, Fluid (supercritical or subcritical phases), x1 = 0.2691",28.7 ± 0.1 kg/m3
same,mass density,"363.24 K, 2014 kPa, Fluid (supercritical or subcritical phases), x1 = 0.2691",32.7 ± 0.1 kg/m3
same,mass density,"363.24 K, 2204 kPa, Fluid (supercritical or subcritical phases), x1 = 0.2691",36.6 ± 0.1 kg/m3
same,mass density,"363.24 K, 2401 kPa, Fluid (supercritical or subcritical phases), x1 = 0.2691",40.6 ± 0.1 kg/m3
same,mass density,"363.24 K, 2576 kPa, Fluid (supercritical or subcritical phases), x1 = 0.2691",44.4 ± 0.1 kg/m3
same,mass density,"363.24 K, 2742 kPa, Fluid (supercritical or subcritical phases), x1 = 0.2691",48.3 ± 0.1 kg/m3
same,mass density,"363.24 K, 2905 kPa, Fluid (supercritical or subcritical phases), x1 = 0.2691",52.3 ± 0.1 kg/m3
same,mass density,"363.24 K, 3058 kPa, Fluid (supercritical or subcritical phases), x1 = 0.2691",56.2 ± 0.1 kg/m3
same,mass density,"363.24 K, 3211 kPa, Fluid (supercritical or subcritical phases), x1 = 0.2691",60.3 ± 0.1 kg/m3
same,mass density,"363.24 K, 3358 kPa, Fluid (supercritical or subcritical phases), x1 = 0.2691",64.4 ± 0.1 kg/m3
same,mass density,"363.24 K, 3493 kPa, Fluid (supercritical or subcritical phases), x1 = 0.2691",68.4 ± 0.1 kg/m3
same,mass density,"363.24 K, 3613 kPa, Fluid (supercritical or subcritical phases), x1 = 0.2691",72.3 ± 0.1 kg/m3

# Source: the NIST ThermoML archive (doi:10.1021/je100851w)
